Data reported in patent US5468756A, “Imidazonaphthyridine derivatives” (Kyowa Hakko Kogyo Co., Ltd., priority 1990, dated 1995).

Assays:
[1] = system: carrageenin-induced paw edema; test: Effect on carrageenin-induced paw edema; assay type: in vivo, male Wistar rats; settings: Rattus norvegicus, 3 hours after carrageenin, read-out: Suppression rate for paw swelling, carrageenin-induced edema; for inhibition in vivo at 100 mg/kg: p.o.; for inhibition in vivo at 50 mg/kg: po, 50 mg/kg P.O.
Experimental: a) Effect on carrageenin-induced paw edema
(§1) Male Wistar rats weighing 150 to 160 g (n=3-5) were used in the experiment. After the right hind paw volume was measured with the plethysmograph (TK-101; Unicom Co., Ltd.), the test compound (25, 50 or 100 mg/kg) was orally administered. After one hour, 0.1 ml of 1% carrageenin (λ-carrageenin; PICNIN-A®, Zushi Kagaku Co., Ltd.) was subcutaneously injected into the right hind paw footpad. Three hours after the injection of carrageenin, the right hind paw volume was measured and the swelling rate was determined by the following equation 1. [formula] Vt: the right hind paw volume measured 3 hours after the injection of carrageenin
(§2) Vo: the right hind paw volume measured prior to the injection of carrageenin
(§3) The suppression rate was calculated by the following equation 2. [formula] Swt: the swelling rate of the group administered with the test compound Swc: the swelling rate of the control group administered with physiological saline solution

[2] = system: passive Schultz-Dale reaction; test: Effect on passive Schultz-Dale reaction (broncho-dilative activity), sensitized tracheal strips contracted by antigen; design: species or system male Hartley guinea pigs; settings: guinea pig tracheal zig-zag strips, 37° C., antigen egg white albumin 1 μg/ml; read-out: Passive Schultz-Dale reaction IC50 (concentration of 50% relaxation rate)
Experimental: d) Effect on passive Schultz-Dale reaction (broncho-dilative activity)
Male Hartley guinea pigs weighing 350 to 500 g were passively sensitized by intraperitoneal injection of rabbit anti-OA serum prepared in advance by the method of Koda et al. [Folia Pharmacol., Japon 66, 237, (1970)]. After 24 hours, the guinea pigs were stunned and exsanguinated, and then tracheae were removed. The zig-zag strips of the tracheae were prepared by the method of Emmerson and Mackay [J. Pharm. Pharmacol., 31, 798, (1979)]. The strips were suspended in Krebs-Henseleit solution at 37° C. under aeration of a mixed gas of 95% oxygen and 5% carbon dioxide, and equilibrated for one hour. Then, antigen (egg white albumin) was introduced in the solution (final concentration; 1 μg/ml), and the contraction was measured by isotonictransducer (TD-112s, made by Nihon Kohden K.K., Japan) and recorded on a recorder (Type 3066, made by Yokogawa-Hokushin Denki, K.K. Japan). After the contraction curves reached a plateau, the test compounds were successively added in order to get cumulative concentration-relaxation curves. The concentration of 50% relaxation rate (IC50) was calculated from the regression line, which was obtained from the cumulative concentration-relaxation curves.

[3] = system: Type III allergic reaction-induced pleurisy; test: Effect on Type III allergic reaction-induced pleurisy; assay type: in vivo, male Wistar rats; settings: 100 mg/kg orally; rats; 4.5 h after induction of pleurisy
Experimental: c) Effect on Type III allergic reaction-induced pleurisy
1. Preparation of IgG fraction of rabbit anti-egg white albumin (anti-OA)
IgG was purified from rabbit anti-OA serum prepared in advance by the method of Koda et al. [Folia Pharmacol., Japon 66, 237, (1970)] in the following manner.
A saturated solution of ammonium sulfate (half volume of the serum) was added to the anti-OA serum, and the mixture was left for one hour at 4° C. The precipitate was taken by centrifugation (3,000 rpm, 30 min. 4° C.) and dissolved in phosphate buffer of Dulbecco. Then, ammonium sulfate fractionation was carried out three times in the same manner as above, whereby a purified IgG fraction was obtained.
2. Type III allergic reaction-induced pleurisy
Male Wistar rats weighing 225-250 g were pre-bred for several days and fasted overnight prior to the experiment. The test compound (100 mg/kg) was orally administered to the animals, and after 30 minutes, a solution of IgC of rabbit anti-OA (0.2 ml, 5 mg protein/ml) was injected into the pleural cavity of the animals from the right side of thorax under anesthesia with ether. Thirty minutes after the injection of IgG, OA (albumin egg grade III; Sigma Chemical Co.) was intravenously injected into the animals as an inducer of pleurisy. After two hours, Evans Blue (25 mg/kg) was intravenously injected, and four and a half hours after the induction of pleurisy, the animals were killed by bleeding.
Then, an exudate in the pleural cavity was obtained, and the volume of the exudate was measured. The pleural cavity was rinsed with 5 ml of physiological saline and the rinsings were added to the exudate. The number of infiltrated cells in the mixture was counted and the volume of the dye in the mixture was determined by the absorption at 625 nm [Agent Actions., 25, 326 (1988)]. The suppression rates for the volume of the exudate, the number of infiltrated cells and the volume of the dye in the pleural cavity were calculated by the following equation 3. [formula] […]

[4] = system: zymosan-induced paw edema; test: Effect on zymosan-induced paw edema; assay type: in vivo, male Wistar rats; settings: Rattus norvegicus, po, read-out: Suppression rate for paw swelling, zymosan-induced edema; for inhibition in vivo at 25 mg/kg: 25 mg/kg P.O.
Experimental: as §1, §2, §3
b) Effect on zymosan-induced paw edema
The experiment was carried out in the same manner as in the carrageenin-induced paw edema test except that 1% zymosan (Zymosan A®; Sigma Chemical Co.) was used in place of 1% carrageenin and the right hind paw volume was measured […] the injection of the edema-inducing substance instead of 3 hours. The swelling rate and the suppression rate were calculated by equation 1 and equation 2, respectively.

[5] = system: platelet activating factor (PAF)-induced mortality; test: Inhibition effect on platelet activating factor (PAF)-induced mortality; assay type: in vivo, male dd mice; settings: Mus musculus, po, PAF 40 μg/kg i.v., 3 h, n = 10, control group survival 0-20%, read-out: Survival rate of test compound-administered group
Experimental: e) Inhibition effect on platelet activating factor (PAF)-induced mortality
The experiment was carried out by a minor modification of a known method [Br. J. Pharmacol., 79, 595 (1983)]. Groups each consisting of 10 male dd mice (weighing 28 to 32 g) were used, and 50 or 100 mg/kg of the test compound or a saline (control) was orally administered. One hour after the administration of test compound, 40 μg/kg of PAF (manufactured by Avanti Polar Lipids Co., Ltd.) was intravenously administered. Three hours after PAF injection, the mortality of the animals was observed.

[6] = system: ddY strain male mice; test: Acute toxicity (Minimum Lethal Dose); assay type: in vivo
Experimental: The test compound was orally and intraperitoneally administered to ddY strain male mice weighing 20 to 25 g. MLD (Minimum Lethal Dose) was determined by observing the mortality for […] after the administration.

Row | SMILES | inhibition in vivo at 100 mg/kg [1] [%] | IC50 [2] [µM] | Suppression rate, number of infiltrated cells in the exudate [3] [%] | Suppression rate, volume of dye in the exudate [3] [%] | Suppression rate, volume of exudate [3] [%] | inhibition in vivo at 100 mg/kg [4] [%] | responders at 100 mg/kg [5] [%] | MLD (Minimum Lethal Dose) i.p. [6] [mg/kg] | MLD (Minimum Lethal Dose) p.o. [6] [mg/kg] | inhibition in vivo at 25 mg/kg [4] [%] | inhibition in vivo at 50 mg/kg [1] [%]
1 | CCCCn1c(=O)c2ncn(C)c2c2cccnc21 [Compound 1, 5-(n-Butyl)-1-methyl-1H-imidazo[4,5-c][1,8]naphthyridin-4(5H)-one] | 40.1 | 12 | 84.1 | 80.3 | 100 | 38.8 | 90 | – | – | – | –
2 | CCn1cnc2c3cccnc3n(-c3ccccc3)c(=O)c21 [Compound 8, 3-Ethyl-5-phenyl-3H-imidazo[4,5-c][1,8]naphthyridin-4(5H)-one] | 56.1 | 0.45 | – | – | – | 64.9 | 70 | > 50 | > 50 | – | –
3 | CCCn1cnc2c3cccnc3n(-c3ccccc3)c(=O)c21 [Compound 9, 5-Phenyl-3-n-propyl-3H-imidazo[4,5-c][1,8]naphthyridin-4(5H)-one] | 52.4 | 6.5 | – | – | – | – | 100 | > 100 | > 100 | 61.2 | –
4 | CC(C)n1cnc2c3cccnc3n(-c3ccccc3)c(=O)c21 [Compound 10, 3-Isopropyl-5-phenyl-3H-imidazo[4,5-c][1,8]naphthyridin-4(5H)-one] | 43.1 | 6 | – | – | – | 53 | 80 | > 100 | > 100 | – | –
5 | CCCCn1cnc2c3cccnc3n(-c3ccccc3)c(=O)c21 [Compound 11, 3-n-Butyl-5-phenyl-3H-imidazo[4,5-c][1,8]naphthyridin-4(5H)-one] | 56.4 | > 10 | – | – | – | – | 100 | > 100 | > 200 | 55.5 | –
6 | CC(C)Cn1cnc2c3cccnc3n(-c3ccccc3)c(=O)c21 [Compound 12, 3-Isobutyl-5-phenyl-3H-imidazo[4,5-c][1,8]naphthyridin-4(5H)-one] | 48.5 | 8.5 | – | – | – | – | 100 | > 50 | > 200 | 69.7 | –
7 | O=c1c2c(ncn2Cc2ccccc2)c2cccnc2n1-c1ccccc1 [Compound 13, 3-Benzyl-5-phenyl-3H-imidazo[4,5-c][1,8]naphthyridin-4(5H)-one] | 58.1 | 1.3 | – | – | – | 65.1 | 90 | > 100 | > 300 | – | –
8 | CC(=O)Cn1cnc2c3cccnc3n(-c3ccccc3)c(=O)c21 [Compound 14, 3-(2-Oxopropyl)-5-phenyl-3H-imidazo[4,5-c][1,8]naphthyridin-4(5H)-one] | 44 | 5.8 | – | – | – | – | 100 | > 100 | > 100 | 53.7 | –
9 | O=c1c2c(ncn2CCc2ccccc2)c2cccnc2n1-c1ccccc1 [Compound 15, 3-Phenethyl-5-phenyl-3H-imidazo[4,5-c][1,8]naphthyridin-4(5H)-one] | 5.2 | 8.1 | – | – | – | – | 50 | > 100 | > 300 | 25.7 | –
10 | CCCCn1c(=O)c2c(ncn2CCC)c2cccnc21 [Compound 29, 5-n-Butyl-3-n-propyl-3H-imidazo[4,5-c][1,8]naphthyridin-4(5H)-one] | 56.1 | 0.29 | – | – | – | – | 100 | > 100 | > 100 | 21.1 | –
11 | CCOCCn1cnc2c3cccnc3n(-c3ccccc3)c(=O)c21 [Compound 31, 3-(Ethoxyethyl)-5-phenyl-3H-imidazo[4,5-c][1,8]naphthyridin-4(5H)-one] | 60.6 | 0.13 | – | – | – | – | 90 | > 100 | > 300 | 57.4 | –
12 | C=CCn1cnc2c3cccnc3n(-c3ccccc3)c(=O)c21 [Compound 33, 3-(2-propenyl)-5-phenyl-3H-imidazo[4,5-c][1,8]naphthyridin-4(5H)-one] | – | 0.0071 | – | – | – | – | 100 | > 100 | > 300 | 67.3 | 67.8
13 | CC(=O)OCCn1cnc2c3cccnc3n(-c3ccccc3)c(=O)c21 [Compound 34, 3-(2-Acetoxyethyl)-5-phenyl-3H-imidazo[4,5-c][1,8]naphthyridin-4(5H)-one] | – | 0.68 | – | – | – | – | 70 | > 100 | > 300 | 41.6 | 42.2
14 | O=c1c2c(ncn2Cc2ccc(F)cc2)c2cccnc2n1-c1ccccc1 [Compound 44, 3-(4-Fluorophenyl)methyl-5-phenyl-3H-imidazo[4,5-c][1,8]naphthyridin-4(5H)-one] | 42.8 | 6.6 | – | – | – | – | 50 | > 50 | > 300 | 63.9 | –
